Legend:
hPPAR alpha = test: Binding Assay (displacement of Radioligand from GST-hPPAR alpha); parameters: species or system human; settings: 60 nM Radioligand
Source text: Bound radioactivity eluted in the column void volume and was quantitated by liquid scintillation counting.

[1] = test system: PPAR alpha over PPAR gamma; test: Transfection assay, selectivity for PPAR alpha over PPAR gamma (GAL4-hPPAR alpha and GAL4-hPPAR gamma); type: cell-based, human; settings: CV-1 cells
Protocol: Plasmids: GAL4-hPPAR alpha chimera and UAS-tk-SPAP reporters.
Transfection assay: SPAP reporter. CV-1 cells were plated in DME medium supplemented with 10% delipidated fetal calf serum at a density of 2.4×10^4 cells per well in a 96-well plate (Costar) 16-24 h before transfection. In general, 8.0 ng of reporter plasmid, 25.0 ng of β-galactosidase expression vector (pCH 110, Pharamacia), and 2.0 ng of GAL4-hPPAR alpha or GAL4-hPPAR gamma expression vector were mixed with carrier DNA (pBluescript, Stratagene) to a total of 80 ng of DNA per well in a volume of […] optiMEM I medium (Life Technologies). To this, a second mix, containing […] optiMEM I medium and […] of LIPOFECTAMINE™ (Life Technologies), was added. After 30 min. an additional […] of optiMEM I medium were added and the combined mix was then applied to the cells. […] Alternatively, alkaline phosphatse and β-galactosidase activities were measured separately using standard protocols. Briefly, cells were lysed by adding […] 0.5% Triton X-100 to the supernatant.

Zucker lean male rats = test: Diet-Induced Model of Dyslipidemia, Zucker lean male rats; type: in vivo, rat; settings: males; for NEFA: before drug 0.72
Source text: (§1) Zucker lean male rats and Zucker fa/fa female rats were randomized into 3 treatment groups. The randomization was based on serum triglyceride concentration after three months on the TEKLAD high fat diet. Dosing with Example 5 or the appropriate vehicle, by oral gavage, began after 4 months of high fat feeding. Plasma glucose, lactate, serum insulin and lipid concentrations were obtained weekly, beginning on day 7 through 48 after the initiation of therapy. Metabolic data from each treatment group was collected weekly. Dexascan determinations of body mass composition obtained after 4 months on the high fat diet served as baseline. Changes in body mass composition due to therapy were determined by repeat measurements at the end of the study.
(§2) Treatment Group B Example 5 (0.1 mg/kg) dosed twice a day.
(§3) Treatment Group C Example 5 (0.3 mg/kg) dosed twice a day.

Zucker fa/fa female rats = test: Diet-Induced Model of Dyslipidemia, Zucker fa/fa female rats; type: in vivo, rat; settings: females
Source text: as §1, §2, §3

Compound: CCCCCCCN(CCc1ccc(OC(C)(CC)C(=O)O)cc1)C(=O)Nc1ccc(F)cc1F (centres unmarked) [Cold Radioligand, 2-(4-(2-(1-Heptyl-3-(2,4-difluorophenyl)ureido)ethyl)phenoxy)-2-methylbutanoic Acid]
- Bound radioactivity in presence of competitor (hPPAR alpha; 10 μM competitor, 4° C., 2-3 hr, mean of triplicate, no competitor 140000): 25000 dpm

Compound: CC(C)(Sc1ccc(CCN(CCCCC2CCCCC2)C(=O)NC2CCCCC2)cc1)C(=O)O [Example 1, 2-(4-(2-(1-(Cyclohexanebutyl)-3-cyclohexylureido)ethyl)phenylthio)-2-methylpropionic Acid]
- activity ratio, PPAR alpha over PPAR gamma [1]: greater than 100

Compound: CC(C)(Sc1ccc(CCN(CCc2ccc(-c3ccccc3)cc2)C(=O)NC2CCCCC2)cc1)C(=O)O [Example 2, 2-(4-(2-(1-(4-Biphenylethyl)-3-cyclohexylureido)ethyl)phenylthio)-2-methylpropionic Acid]
- activity ratio, PPAR alpha over PPAR gamma [1]: greater than 100

Compound: CC(C)(Sc1ccc(CCN(Cc2ccc(-c3ccccc3C(F)(F)F)cc2Cl)C(=O)NC2CCCCC2)cc1)C(=O)O [Example 3, 2-(4-(2-(1-(2-Chloro-4-(2-trifluoromethylphenyl)phenylmethyl)-3-(cyclohexyl)ureido)ethyl)phenylthio)-2-methylpropionic Acid]
- activity ratio, PPAR alpha over PPAR gamma [1]: greater than 100

Compound: CCCCCCCN(CCc1ccc(SC(C)(C)C(=O)O)cc1)C(=O)Nc1ccc(F)cc1F [Example 5, 2-(4-(2-(1-Heptyl-3-(2,4-difluorophenyl)ureido)ethyl)phenylthio)-2-methylpropionic Acid]
- NEFA (Zucker lean male rats; 0.1 mg/kg oral gavage twice a day, Week 1, vehicle 0.85): 0.73 m Eq/L
- Cholesterol (Zucker lean male rats; 0.1 mg/kg oral gavage twice a day, Week 1, before drug 221, vehicle 191): 138 mg/dL
- Body Weight (Zucker lean male rats; 0.1 mg/kg oral gavage twice a day, Week 1, before drug 636, vehicle 610): 617 g
- Triglycerides (Zucker lean male rats; 0.1 mg/kg oral gavage twice a day, Week 1, before drug (after 4 months on high-fat diet) 828, vehicle 718): 460 mg/dL
- NEFA (Zucker lean male rats; 0.1 mg/kg oral gavage twice a day, Week 4, vehicle 0.65): 0.57 m Eq/L
- Cholesterol (Zucker lean male rats; 0.1 mg/kg oral gavage twice a day, Week 4, before drug 221, vehicle 224): 189 mg/dL
- Body Weight (Zucker lean male rats; 0.1 mg/kg oral gavage twice a day, Week 4, before drug 636, vehicle 610): 592 g
- Triglycerides (Zucker lean male rats; 0.1 mg/kg oral gavage twice a day, Week 4, before drug 828, vehicle 741): 467 mg/dL
- NEFA (Zucker lean male rats; 0.1 mg/kg oral gavage twice a day, Week 7, vehicle 0.60): 0.58 m Eq/L
- Cholesterol (Zucker lean male rats; 0.1 mg/kg oral gavage twice a day, Week 7, before drug 221, vehicle 215): 148 mg/dL
- Body Weight (Zucker lean male rats; 0.1 mg/kg oral gavage twice a day, Week 7, before drug 636, vehicle 632): 597 g
- Triglycerides (Zucker lean male rats; 0.1 mg/kg oral gavage twice a day, Week 7, before drug 828, vehicle 725): 584 mg/dL
- NEFA (Zucker lean male rats; 0.3 mg/kg oral gavage twice a day, Week 1, vehicle 0.85): 0.69 m Eq/L
- Cholesterol (Zucker lean male rats; 0.3 mg/kg oral gavage twice a day, Week 1, before drug 235, vehicle 191): 138 mg/dL
- Body Weight (Zucker lean male rats; 0.3 mg/kg oral gavage twice a day, Week 1, before drug 639, vehicle 610): 608 g
- Triglycerides (Zucker lean male rats; 0.3 mg/kg oral gavage twice a day, Week 1, before drug 926, vehicle 718): 527 mg/dL
- NEFA (Zucker lean male rats; 0.3 mg/kg oral gavage twice a day, Week 4, vehicle 0.65): 0.47 m Eq/L
- Cholesterol (Zucker lean male rats; 0.3 mg/kg oral gavage twice a day, Week 4, before drug 235, vehicle 224): 174 mg/dL
- Body Weight (Zucker lean male rats; 0.3 mg/kg oral gavage twice a day, Week 4, before drug 639, vehicle 610): 577 g
- Triglycerides (Zucker lean male rats; 0.3 mg/kg oral gavage twice a day, Week 4, before drug 926, vehicle 741): 174 mg/dL
- NEFA (Zucker lean male rats; 0.3 mg/kg oral gavage twice a day, Week 7, vehicle 0.60): 0.46 m Eq/L
- Cholesterol (Zucker lean male rats; 0.3 mg/kg oral gavage twice a day, Week 7, before drug 235, vehicle 215): 151 mg/dL
- Body Weight (Zucker lean male rats; 0.3 mg/kg oral gavage twice a day, Week 7, before drug 639, vehicle 632): 565 g
- Triglycerides (Zucker lean male rats; 0.3 mg/kg oral gavage twice a day, Week 7, before drug 926, vehicle 725): 219 mg/dL
- NEFA (Zucker fa/fa female rats; 0.1 mg/kg oral gavage twice a day, Week 1, before drug 11.15, vehicle 6.78): 2.47 m Eq/L
- Body Weight (Zucker fa/fa female rats; 0.1 mg/kg oral gavage twice a day, Week 1, before drug 665, vehicle 684): 721 g
- Cholesterol (Zucker fa/fa female rats; 0.1 mg/kg oral gavage twice a day, Week 1, before drug 1648, vehicle 1186): 610 mg/dL
- Triglycerides (Zucker fa/fa female rats; 0.1 mg/kg oral gavage twice a day, Week 1, before drug (after 4 months on high-fat diet) 9310, vehicle 5357): 2717 mg/dL
- NEFA (Zucker fa/fa female rats; 0.1 mg/kg oral gavage twice a day, Week 4, before drug 11.15, vehicle 2.79): 1.32 m Eq/L
- Body Weight (Zucker fa/fa female rats; 0.1 mg/kg oral gavage twice a day, Week 4, before drug 665, vehicle 700): 723 g
- Cholesterol (Zucker fa/fa female rats; 0.1 mg/kg oral gavage twice a day, Week 4, before drug 1648, vehicle 1319): 733 mg/dL
- Triglycerides (Zucker fa/fa female rats; 0.1 mg/kg oral gavage twice a day, Week 4, before drug 9310, vehicle 10414): 3913 mg/dL
- NEFA (Zucker fa/fa female rats; 0.1 mg/kg oral gavage twice a day, Week 7, before drug 11.15, vehicle 3.77): 1.75 m Eq/L
- Body Weight (Zucker fa/fa female rats; 0.1 mg/kg oral gavage twice a day, Week 7, before drug 665, vehicle 706): 710 g
- Cholesterol (Zucker fa/fa female rats; 0.1 mg/kg oral gavage twice a day, Week 7, before drug 1648, vehicle 923): 632 mg/dL
- Triglycerides (Zucker fa/fa female rats; 0.1 mg/kg oral gavage twice a day, Week 7, before drug 9310, vehicle 5465): 2627 mg/dL
- NEFA (Zucker fa/fa female rats; 0.3 mg/kg oral gavage twice a day, Week 1, before drug 13.06, vehicle 6.78): 1.45 m Eq/L
- Body Weight (Zucker fa/fa female rats; 0.3 mg/kg oral gavage twice a day, Week 1, before drug 645, vehicle 684): 673 g
- Cholesterol (Zucker fa/fa female rats; 0.3 mg/kg oral gavage twice a day, Week 1, before drug 1908, vehicle 1186): 350 mg/dL
- Triglycerides (Zucker fa/fa female rats; 0.3 mg/kg oral gavage twice a day, Week 1, before drug 9190, vehicle 5357): 1627 mg/dL
- NEFA (Zucker fa/fa female rats; 0.3 mg/kg oral gavage twice a day, Week 4, before drug 13.06, vehicle 2.79): 0.59 m Eq/L
- Body Weight (Zucker fa/fa female rats; 0.3 mg/kg oral gavage twice a day, Week 4, before drug 645, vehicle 700): 643 g
- Cholesterol (Zucker fa/fa female rats; 0.3 mg/kg oral gavage twice a day, Week 4, before drug 1908, vehicle 1319): 404 mg/dL
- Triglycerides (Zucker fa/fa female rats; 0.3 mg/kg oral gavage twice a day, Week 4, before drug 9190, vehicle 10414): 687 mg/dL
- NEFA (Zucker fa/fa female rats; 0.3 mg/kg oral gavage twice a day, Week 7, before drug 13.06, vehicle 3.77): 0.53 m Eq/L
- Body Weight (Zucker fa/fa female rats; 0.3 mg/kg oral gavage twice a day, Week 7, before drug 645, vehicle 706): 582 g
- Cholesterol (Zucker fa/fa female rats; 0.3 mg/kg oral gavage twice a day, Week 7, before drug 1908, vehicle 923): 422 mg/dL
- Triglycerides (Zucker fa/fa female rats; 0.3 mg/kg oral gavage twice a day, Week 7, before drug 9190, vehicle 5465): 538 mg/dL

Compound: [3H]C(CCCC)C([3H])CN(CCc1ccc(OC(C)(CC)C(=O)O)cc1)C(=O)Nc1ccc(F)cc1F (centres unmarked) [Radioligand, 2-(4-(2-(2,3-Ditritio-1-heptyl-3-(2,4-difluorophenyl)ureido)ethyl)phenoxy)-2-methylbutanoic Acid]
- Specific Binding (hPPAR alpha; no competitor minus 10 μM Cold Radioligand): 115000 dpm

Source: patent publication US6306854A, “Chemical compounds” (Glaxosmithkline, priority 1998, dated 2001)
